Assay results taken from patent US10077288B2, “Hydroxystatin derivatives for the treatment of arthrosis” (Merck Patent GmbH, priority 2012, dated 2018).

How the values were obtained:
[1] = molecular target: T1, cathepsin D isolated from the human liver (Homo sapiens, UniProt P07339); assay: In-vitro fluorescence assay for identification of cathepsin D inhibitors; format: biochemical; details: human liver cathepsin D 1.4 nM, pH 5.5; read-out: CatD assay IC50-(M)
T1 construct: cathepsin D isolated from the human liver (Sigma-Aldrich); purchased Sigma-Aldrich; host or cells: human liver (tissue-derived, not recombinant)
T1 sequence (P07339 65-161 limits assumed): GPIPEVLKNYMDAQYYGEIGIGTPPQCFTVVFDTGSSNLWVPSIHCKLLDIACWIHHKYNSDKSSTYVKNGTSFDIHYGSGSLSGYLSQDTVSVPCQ
T1 sequence (P07339 169-412 limits assumed): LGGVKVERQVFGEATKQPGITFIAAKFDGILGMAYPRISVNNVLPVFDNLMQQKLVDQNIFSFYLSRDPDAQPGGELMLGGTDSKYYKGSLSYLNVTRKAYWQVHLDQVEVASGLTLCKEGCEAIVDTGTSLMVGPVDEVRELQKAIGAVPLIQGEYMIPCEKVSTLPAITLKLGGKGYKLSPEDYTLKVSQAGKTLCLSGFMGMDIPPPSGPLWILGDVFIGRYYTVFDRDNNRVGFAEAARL
Summary of the method: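 Continuous FRET assay: human liver cathepsin D (1.4 nM final) preincubated 10 min at room temperature with serially diluted compound in 100 mM sodium acetate, 1.25% DMSO, 0.25% Chaps, pH 5.5. Started with 5 μM MCA-GKPILFFRLK(Dnp)d-R-NH2; fluorescence increase (ex 340/em 450 nm) over 60 min at room temperature compared with no-compound control.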

[2] = Stability in bovine synovial fluid; format: in vitro ADME; details: 1 μM, up to 48 h at 37° C.
Protocol: EXAMPLE 7: STABILITY OF THE COMPOUNDS ACCORDING TO THE INVENTION IN BOVINE SYNOVIAL FLUID
In the preparation of bovine explants (for the diffusion chamber or other assays), either cow hoof (metacarpal joints) or cow knee is used. The synovial fluid can be obtained from both joints. To this end, the synovial fluid is carefully removed from the open joint using a 10 ml syringe and a cannula and transferred into prepared 2 ml Eppendorf vessels. The Eppendorf vessels are labelled depending on the animal (cow passport is available). […] If this is the case, the synovial fluid will become a reddish colour and must consequently be discarded. The synovial fluid is basically highly viscous and clear to yellowish in colour. The removal together with a macroscopic analysis of the synovial fluid is documented.
In order to check the stability of individual compounds, a pool of four different bovine synovial fluids is mixed. To this end, about 1 ml per SF is used. The mixture is prepared directly in a 5 ml glass vessel. The SFs are mixed thoroughly, but carefully. No air bubbles or foam should form. To this end, a vortex unit is used at the lowest speed. The compounds to be tested are tested in an initial concentration (unless required otherwise) of 1 μM. After addition of the substance, the batch is again mixed thoroughly and carefully. For visual monitoring, all SF batches are photographed, and the pictures are filed in the eLabBio file for the corresponding experiment. […] The batches are incubated in the incubator for 48 h at 37° C. and 7.5% CO2.
The sampling is carried out after the pre-agreed times (unless required otherwise, see below). 200 μl of the SF are removed from the mixture per time and transferred directly into a 0.5 ml “low-binding” Eppendorf vessel. […]
The concentrations measured (ng/ml) are plotted against the time in a graph (GraphPad Prism®). The percentage stability of the substance is determined here. […]
All compounds measured remained stable (see Table 2 in Example 1).

Compound: CC[C@H](C)[C@H](NC(=O)C[C@H](O)[C@H](Cc1ccccc1)NC(=O)[C@@H](NC(=O)Cc1cccc(OC)c1)C(C)C)C(=O)N[C@H](C(=O)O)C(C)C [Compound 20, (S)-2-[(2S,3S)-2-((3S,4S)-3-hydroxy-4-{(S)-2-[2-(3-methoxyphenyl)-acetylamino]-3-methylbutyrylamino}-5-phenylpentanoylamino)-3-methylpentanoylamino]-3-methylbutyric acid]
- IC50 [1]: 1.2e-08 M
- Stability in synovial fluid [2]: stable

Compound: CC[C@H](C)[C@H](NC(=O)C[C@H](O)[C@H](Cc1ccccc1)NC(=O)[C@@H](NC(=O)CCc1ccccc1)C(C)C)C(=O)N[C@H](C(=O)O)C(C)C [Compound 4, (S)-2-((2S,3S)-2-{(3S,4S)-3-hydroxy-4-[(S)-3-methyl-2-(3-phenyl-propionylamino)butyrylamino]-5-phenylpentanoylamino}-3-methylpentanoylamino)-3-methylbutyric acid]
- IC50 [1]: 3e-08 M
- Stability in synovial fluid [2]: stable

Compound: CC[C@H](C)[C@H](NC(=O)C[C@H](O)[C@H](Cc1ccccc1)NC(=O)[C@@H](NC(=O)CCCc1ccccc1)C(C)C)C(=O)N[C@H](C(=O)O)C(C)C [Compound 5, (S)-2-((2S,3S)-2-{(3S,4S)-3-hydroxy-4-[(S)-3-methyl-2-(4-phenyl-butyrylamino)butyrylamino]-5-phenylpentanoylamino}-3-methylpentanoylamino)-3-methylbutyric acid]
- IC50 [1]: 3.41e-08 M
- Stability in synovial fluid [2]: stable
